Experimental data as given in patent publication US9982265B2, “Inhibition of Bruton's tyrosine kinase (Btk) in the lung to treat severe lung inflammation and lung injury” (BOARD OF REGENTS, THE UNIVERSITY OF TEXAS SYSTEM, priority 2014, dated 2018).

Tests used:
[1] = test system: mice with anti-KC:KC IC ALI; assay: anti-KC:KC IC model of ALI, Lung Injury Score; type: in vivo; conditions: Table 4; mice immunized with KC then given KC; score 0 to 2; means ± SD, 3 animals per group
Description: Anti-KC:KC immune complexes were prepared according to the protocol routinely used in our laboratory (28). Some mice received Btk specific siRNA intranasally. In other experiments the animals were treated i.n. with siRNA specific for Btk (see SEQ ID NOs:18-25) or MMP-9 (Invitrogen), both conjugated (T3™-MAX Conjugation Kit (Bioo Scientific Corporation, Austin, Tex.) to F(ab′)2 fragments of anti-mouse neutrophil antibody Ly-6G1A8). F(ab′)2 fragments alone or conjugated to control siRNA (SEQ ID NO's 26 and 27) (Invitrogen) served as controls of the treatment. Two or fourteen hours after i.n. administration of either immune complexes or saline, the animals were euthanized and samples collected for further evaluation. To study role of neutrophil FcγRIII receptors neutrophils were first depleted by i.p. injection of vinblastine (31) followed by adoptive transfer of cells deficient in FcγRIII receptors prepared as described below. […] Lung dysfunction was assessed by analysis of pulmonary histopathology.
Pulmonary Histopathology: Lungs were fixed in ExCellPlus (AMTS, Lodi, Calif.), embedded in paraffin, and sectioned at 5 μm. […] The images of stained sections were evaluated for the presence of alveolar exudate, infiltration of inflammatory cells, and interstitial thickening. Lung Injury Score (LIS) was assessed as described earlier (28). Most images were assessed at magnification of over 400×. […] At the minimum twenty sections from each group of mice were evaluated and 4 investigators participated in the analysis of 50 or more fields per group. According to recommendation of “An Official American Thoracic Society Workshop Report: Features and Measurements of Experimental Acute Lung Injury in Animals” (Am J Respir Cell Mol Biol 44 725-738, 2011) more than 20 high power fields were independently scored (as described above) and at least 50% of each field was occupied by lung alveoli. […]

[2] = test system: ApoE−/− mice fed Western Diet and exposed to SHS; assay: Second hand smoke-induced emphysema/COPD model, PicroSirius Red and Hart's Elastin lung staining; type: in vivo; conditions: i.v. twice a week for 4 weeks, FIG. 18, 19
Source text: Second Hand Smoke (SHS)-Induced COPD: Chronic exposure of mice to SHS induces abnormal pulmonary inflammation, airway remodeling and airspace enlargement due to destruction of alveolar walls which are characteristic of COPD (Pappas et al., supra). The present studies used both wild-type (WT) mice exposed to SHS and apolipoprotein E-(ApoE^−/−)-genetically deficient mice to study comorbidities of COPD. The targeted deletion of the apoE gene leads to severe hypercholesterolemia and spontaneous atherosclerosis. Lesions of ApoE^−/− mice resemble their human counterparts and develop over time from initial fatty streaks to complex lesions. (A high-fat, high-cholesterol diet can strongly accelerate the process.) Exposure of ApoE^−/− mice to SHS triggers characteristic decline of lung function that is seen in patients with COPD (Arunachalam, G. et al., supra). ApoE^−/− mice were fed a regular diet (control) and a high fat/cholesterol (1%) diet to shorten the time required for the development of atherosclerosis.
WT and ApoE^−/− diet groups were divided into equal subgroups: control and SHS. SHS groups were exposed to cigarette smoke for 4 h per day, 5 days a week, for up to 20 weeks. A Teague TE-10 microprocessor-controlled smoking machine was used to produce side stream mixed with a smaller amount of main stream smoke. […] TSP values were measured twice a week or as necessary. […]

| SMILES | Lung Injury Score: Edema fluid [1] | Lung Injury Score: Inflammatory infiltration [1] | Lung Injury Score: Thickening of alveolar septa [1] | effect on symptoms of emphysema/COPD [2] |
| --- | --- | --- | --- | --- |
| CC[C@]1(O)C[C@@H]2CN(CCc3c([nH]c4ccccc34)[C@@](C(=O)OC)(c3cc4c(cc3OC)N(C)[C@H]3[C@@](O)(C(=O)OC)[C@H](OC(C)=O)[C@]5(CC)C=CCN6CC[C@]43[C@@H]65)C2)C1 [vinblastine] | 0.033 ± 0.029 | 0.167 ± 0.029 | 0.133 ± 0.153 | – |
| C=CC(=O)N1CCC[C@@H](n2nc(-c3ccc(Oc4ccccc4)cc3)c3c(N)ncnc32)C1 [PCI-32765, 1-[(3R)-3-[4-amino-3-(4-phenoxyphenyl)-pyrazolo[3,4-d]pyrimidin-1-yl]piperidin-1-yl]prop-2-en-1-one] | – | – | – | dramatic protective effect |
